Results as given in patent US20230127046A1, “G9a INHIBITOR” (RIKEN, priority 2019, published 2023).
Read-outs that look alike come from different tables or passages of the source.

Tests used:
[1] = target: T1, recombinant human G9a protein (Homo sapiens, UniProt Q96KQ7); test: G9a inhibitory activity test (ALPHA); type: biochemical
T1 construct: purchased BPS Bioscience Inc. #51001
T1 sequence (Q96KQ7 785-1210 limits assumed): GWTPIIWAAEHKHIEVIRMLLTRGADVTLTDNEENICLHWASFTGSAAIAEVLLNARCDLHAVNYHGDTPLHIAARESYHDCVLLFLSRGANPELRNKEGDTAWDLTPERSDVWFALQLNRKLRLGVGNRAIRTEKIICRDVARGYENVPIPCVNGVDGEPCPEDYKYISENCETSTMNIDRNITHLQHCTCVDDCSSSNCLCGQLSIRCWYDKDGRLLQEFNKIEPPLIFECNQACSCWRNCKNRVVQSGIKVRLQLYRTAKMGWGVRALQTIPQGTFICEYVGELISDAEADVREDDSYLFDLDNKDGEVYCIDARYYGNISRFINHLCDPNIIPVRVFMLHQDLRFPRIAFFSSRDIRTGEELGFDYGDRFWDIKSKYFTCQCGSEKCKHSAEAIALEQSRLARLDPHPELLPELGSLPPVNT
Method in brief: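 Human G9a (0.05 to 0.1 nM) in Tris pH 9.0 buffer preincubated with compound 10 min, then biotinylated histone H3 (1-21) peptide and SAM mixed 1:1 from 500 nM and 150 μM solutions, 1 h at room temperature. H3K9me2 detected by AlphaLISA acceptor/streptavidin donor beads; IC50 from percent inhibition relative to no-compound and no-enzyme controls.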

[2] = test system: human lung cancer cell line NCI-H460; test: Colony formation inhibition test; type: cell-based; details: 288 h, NCI-H460 cells, culture for 12 days, read-out: Inhibitory activity (colony formation GI50)
Protocol: Each compound was evaluated for its colony formation inhibitory activity against a human lung cancer cell line NCI-H460. The NCI-H460 cells were cultured in a DMEM medium (FUJIFILM Wako Pure Chemical Corp., 044-29765) containing 10% fetal bovine serum and 4 mM glutamine. The cultured cells were washed with PBS, then detached with trypsin/EDTA, and adjusted to 2×10^3 cells/mL to prepare a cell suspension. The cell suspension was inoculated at 1 mL/well to a 12-well microplate (Corning Inc., 3513), and the test compound (DMSO solution) was added at 1 μL/well, followed by culture for 12 days under conditions of 37° C. and 5% CO2. DMSO was added at 1 μL/well to control wells with a final DMSO concentration set to 0.1%. The medium was discarded every day or every two days, and a fresh medium was added at 1 mL/well. The test compound or DMSO was added at 1 μL/well. The proportion of a colony of each well was measured using a high-speed cell imaging system (Tomy Digital Biology Co., Ltd., Celigo). The ratio of the colony in each compound-supplemented group was determined with the ratio of the colony formed in a test compound solution-unsupplemented well defined as 1. A compound concentration necessary for suppressing the rate of colony formation by 50% of the control (GI50) was calculated using data analysis software Origin (LightStone Crop.).

[3] = test system: intracellular histone H3K9 dimethylation level in human lung cancer cell line NCI-H460; test: Histone H3K9 dimethylation inhibitory activity test (Western blotting); type: cell-based; details: NCI-H460 cells, 72 hours
Protocol: The inhibitory activity of each compound against G9a was evaluated by adding the compound to a human lung cancer cell line NCI-H460, and detecting change in intracellular histone H3K9 dimethylation level by Western blotting. The NCI-H460 cells were cultured in a DMEM medium (FUJIFILM Wako Pure Chemical Corp., 044-29765) containing 10% fetal bovine serum and 4 mM glutamine. The cultured cells were washed with PBS and then detached with trypsin/EDTA, and the cell suspension was adjusted to 2.5×10^4 cells/mL. The cell suspension was inoculated at 500 μL/well to a 24-well microplate (Thermo Fisher Scientific, Inc., 142475) and cultured overnight under conditions of 37° C. and 5% CO2. On the next day, the test compound (solution in DMSO) was added at 0.5 µL/well and reacted for 72 hours under conditions of 37° C. and 5% CO2. DMSO was added at 0.5 μL/well to control wells (final DMSO concentration: 0.1%). The medium was removed, and the cells were washed with PBS. Then, a 2×SDS-PAGE sample buffer (100 mM Tris-HCl (pH 6.8), 4% sodium lauryl sulfate, 2% 2-mercaptoethanol, 20% glycerol, 0.005% bromophenol blue) was added at 50 μL/well to prepare a sample. The recovered sample was heated at 95 to 100° C. for 10 minutes, and protein was separated by polyacrylamide gel electrophoresis (SDS-PAGE). Subsequently, the separated protein was transferred to a polyvinylidene fluoride (PVDF) membrane by semi-dry blotting. The PVDF membrane was dipped in 3% skimmed milk (dissolved in PBS containing 0.05% Tween 20 (PBST)), blocked at room temperature for 30 to 60 minutes, then dipped in an anti-dimethylated histone H3K9 antibody (Abcam plc, ab1220) diluted 1000-fold with 3% skimmed milk, and reacted overnight at 4° C. On the next day, the PVDF membrane was washed three times with PBST, then dipped in a HRP (horseradish peroxidase)-labeled anti-mouse IgG antibody diluted 10000-fold with skimmed milk, and reacted at room temperature for 1 hour. The PVDF membrane was washed three times with PBST, then dipped in chemiluminescent substrate solution Immobilon Western Chemiluminescent HRP Substrate (Merck Millipore, WBKLS0500), incubated at room temperature for 5 minutes, and photographed with Lumino Image Analyzer (GE Healthcare Japan Corp., ImageQuant LAS4000).
Then, the antibody was stripped from the PVDF membrane using re-probe reagent EzReprobe (ATTO Corp., WSE-7240), and trimethylated histone H3K9 and histone H3 were detected by the same procedures as above. An anti-trimethyl histone H3K9 antibody (39161, diluted 1000-fold) from Active Motif, Inc. and an anti-histone H3 antibody (ab1791, diluted 2000-fold) from Abcam plc were used in the detection. The band of each protein was quantified from the taken image using image processing software ImageJ (NIH). The ratios of dimethylated histone H3K9 and trimethylated histone H3K9 to the histone H3 protein were calculated with the numeric value of a compound-unsupplemented sample defined as 100%. A compound concentration at which the ratio of dimethylated histone H3K9 was 50% was calculated as a 50% inhibition concentration (IC50 value) using data analysis software Origin (LightStone Corp.).

[4] = biotinylated histone H3 peptide (1-21), SAM, read-out: Inhibitory activity (G9a IC50 value)
[5] = read-out: Inhibitory activity (G9a IC50)

| SMILES | IC50 [1, 4] | GI50 [2] | IC50 [3] | IC50 [1, 5] |
| --- | --- | --- | --- | --- |
| Cc1c(C(=O)NC(CCC2CC2)C(=O)NC2CCN(C)CC2)[nH]c2c1C(=O)CC(C)(C)C2 (stereo not shown) [Example 1-68] | ≥ 200 nM | ≥ 1000 nM | 50 to 500 nM |  |
| COc1ccc(NC(=O)[C@H](CCC2CC2)NC(=O)c2ccc(Nc3cc(C)nc(C)c3)cc2)cn1 [Example 6-89] |  | < 500 nM | 50 to 500 nM | < 50 nM |
| CCCC[C@H](NC(=O)c1[nH]c2c(c1C)C(=O)CC(C)(C)C2)C(=O)N[C@@H](C)c1ccccc1 [Example 2-1, 3,6,6-trimethyl-4-oxo-N-((S)-1-oxo-1-(((S)-1-phenylethyl)amino)hexan-2-yl)-4,5,6,7-tetrahydro-1H-indole-2-carboxamide] |  | 500 to 1000 nM | < 50 nM | 50 to 200 nM |
| CCCC[C@H](NC(=O)c1[nH]c2c(c1C)C(=O)CC(C)(C)C2)C(=O)NCc1ccc(CN(C)C)cc1 [Example 6-34] |  | 500 to 1000 nM | < 50 nM | < 50 nM |
| CCCC[C@H](NC(=O)c1[nH]c2c(c1C)C(=O)CC(C)(C)C2)C(=O)Nc1ccc(OC2CCN(C)CC2)cc1OC [Example 6-30] |  | < 500 nM | < 50 nM | < 50 nM |
| COc1ccc(NC(=O)C(CCC2CC2)NC(=O)c2ccc(Nc3ccncc3)cc2)cn1 (stereo not shown) [Example 6-49] |  | < 500 nM | 50 to 500 nM | < 50 nM |
| Cc1ccc(NC(=O)C(CCC2CC2)NC(=O)c2[nH]c3c(c2C)C(=O)CC(C)(C)C3)cn1 (stereo not shown) [Example 1-80] | ≥ 200 nM | 500 to 1000 nM | 50 to 500 nM |  |
| Cc1c(C(=O)NC(CCC2CC2)C(=O)Nc2ccccc2)[nH]c2c1C(=O)CC(C)(C)C2 (stereo not shown) [Example 6-17] |  | 500 to 1000 nM | < 50 nM | 50 to 200 nM |
| CCCCC(NC(=O)c1ccc(N2CCN(C)CC2)cc1Cl)C(=O)Nc1ccc(OC2CCN(C)CC2)nc1 (stereo not shown) [Example 11-4] |  | ≥ 1000 nM | ≥ 500 nM | ≥ 200 nM |
| COc1ccc(NC(=O)C(CCC2CC2)NC(=O)c2ccc(CN3CCN(C)CC3)cc2)cn1 (stereo not shown) [Example 6-52] |  | 500 to 1000 nM | 50 to 500 nM | ≥ 200 nM |
| O=C(Cc1ccccc1)NC(CCC1CC1)C(=O)Nc1ccc(OC2COC2)nc1 (stereo not shown) [Example 1-87] | 50 to 200 nM | ≥ 1000 nM | 50 to 500 nM |  |
| Cc1c(C(=O)NC(CCC2CC2)C(=O)Nc2ccc(C#N)cc2)[nH]c2c1C(=O)CC(C)(C)C2 (stereo not shown) [Example 1-79] | 50 to 200 nM | < 500 nM | < 50 nM |  |
| COc1ccc(NC(=O)C(CCC2CC2)NC(=O)c2ccc(Nc3cc(C)nc(C)c3)cc2)cn1 (stereo not shown) [Example 6-62] |  | < 500 nM | 50 to 500 nM | < 50 nM |
| Cc1c(C(=O)NC(CCC2CC2)C(=O)N2CCc3ccccc32)[nH]c2c1C(=O)CC(C)(C)C2 (stereo not shown) [Example 1-81] | 50 to 200 nM | < 500 nM | 50 to 500 nM |  |
| CCCC[C@H](NC(=O)c1[nH]c2c(c1C)C(=O)CC(C)(C)C2)C(=O)Nc1ccc(OC2CCN(C)CC2)cc1 [Example 6-32] |  | < 500 nM | < 50 nM | < 50 nM |
| COc1ccc(NC(=O)C(CCC2CC2)NC(=O)c2ccc(Nc3ccncc3)cc2C)cn1 (stereo not shown) [Example 6-51] |  | < 500 nM | 50 to 500 nM | < 50 nM |
| CCCC[C@H](NC(=O)c1[nH]c2c(c1C)C(=O)CC(C)(C)C2)c1nc2ccc(OC3CCNCC3)cc2[nH]1 [Example 35-1, (S)-3,6,6-trimethyl-4-oxo-N-(1-(6-(piperidin-4-yloxy)-1H-benzo[d]imidazol-2-yl)pentyl)-4,5,6,7-tetrahydro-1H-indole-2-carboxamide] |  | ≥ 1000 nM | ≥ 500 nM | 50 to 200 nM |
| CCCC[C@H](NC(=O)c1[nH]c2c(c1C)C(=O)CC(C)(C)C2)c1nc2ccc(OCC3CCNCC3)cc2[nH]1 [Example 35-2] |  | ≥ 1000 nM | ≥ 500 nM | < 50 nM |
| CCCC[C@H](NC(=O)c1[nH]c2c(c1C)C(=O)CC(C)(C)C2)C(=O)NCc1ccc(N2CCN(C)CC2)cc1 [Example 22-2] |  | 500 to 1000 nM | < 50 nM | 50 to 200 nM |
| COc1ccc(NC(=O)C(CCC2CC2)NC(=O)c2ccc(N(C)c3ccncc3)cc2)cn1 (stereo not shown) [Example 6-55] |  | < 500 nM | 50 to 500 nM | < 50 nM |
| CCCC[C@H](NC(=O)c1[nH]c2c(c1C)C(=O)CC(C)(C)C2)C(=O)Nc1ccccc1 [Example 6-33] |  | ≥ 1000 nM | 50 to 500 nM | ≥ 200 nM |
| CCCC[C@H](NC(=O)c1[nH]c2c(c1C)C(=O)CC(C)(C)C2)C(=O)Nc1ccc(OC2CCN(C)CC2)nc1 [Example 6-31] |  |  |  | < 50 nM |
| CCCCC(NC(=O)c1[nH]c2c(c1C)C(=O)CC(C)(C)C2)C(=O)N[C@@H]1CCCc2ccccc21 (stereo partly shown) [Example 1-104] | 50 to 200 nM |  |  |  |
| Cc1c(C(=O)NC(CCC2CC2)C(=O)NC2(c3ccc(C#N)cc3)CC2)[nH]c2c1C(=O)CC(C)(C)C2 (stereo not shown) [Example 1-69] | ≥ 200 nM |  |  |  |
| CCc1cc(Br)ncc1NC(=O)C(CCC1CC1)NC(=O)c1[nH]c2c(c1C)C(=O)CC(C)(C)C2 (stereo not shown) [Example 6-15] |  |  |  | < 50 nM |
